Read-outs that look alike come from different tables or passages of the source.
Tests used:
[1] = Plasma protein binding, equilibrium dialysis (human); type: in vitro ADME; details: pH 7.4, equilibrium dialysis 6 hours, read-out: PPB (human), percent of unbound fraction
[2] = Brain tissue binding, equilibrium dialysis (rat); type: in vitro ADME
Method: Thawing of the frozen brain tissue homogenate (stored at −80° C.). Frozen brain tissue homogenate was thawed immediately in a room temperature bath. Note: Only use brain tissue homogenate that has been thawed no more than once.
Preparation of working solutions. The working solutions of test compound and control compound propranolol were prepared in DMSO at the concentration of 200 μM. And then 4 μL of working solution was removed to mix with 796 μL of rat brain tissue homogenate to achieve a final concentration of 1 μM (0.5% DMSO). Brain tissue homogenate samples were vortexed thoroughly.
Preparation of dialysis membranes. The dialysis membranes were soaked in ultrapure water for 60 minutes to separate strips, then in 20% ethanol for 20 minutes, finally in dialysis buffer for 20 minutes.
Procedure for equilibrium dialysis. The dialysis apparatus was assembled according to the manufacturer's instruction. Each cell was filled with 150 μL of brain tissue homogenate sample and dialyzed against equal volume of dialysis buffer (PBS). The assay was performed in duplicate. The dialysis plate was sealed and incubated in an incubator at 37° C. with 5% CO2 at approximately 100 rpm for 6 hours. At the end of dialysis, seal was removed and 50 μL of samples from both buffer and brain tissue homogenate chambers were transferred into separate tubes in plate.
Procedure for sample analysis. 50 μL of brain tissue homogenate was added to each buffer samples and an equal volume of PBS was supplemented to the collected brain tissue homogenate sample. 400 μL of room temperature quench solution (acetonitrile containing internal standards (IS, 100 nM Alprazolam, 500 nM Labetalol and 2 μM Ketoprofen)) was added to precipitate protein. Samples in plate were vortexed for 5 minutes and centrifuged at 3,220 g for 30 minutes at room temperature. And then 100 μL of the supernatant was transferred to a new 96-well plate with 100 μL water for LC-MS/MS analysis.
Data analysis. All calculations were carried out using Microsoft Excel. […]
Fumeans=unbound fraction measured with brain tissue homogenate […]

[3] = Rat pharmacokinetic studies; type: in vivo, male SD rats; set-up: AUClast/D: unit not given here; details: for AUC(0-inf) / AUC(0-t) / C0 / half-life / MRT inf / Vd / Cmax / Tmax: male, SD; for MRT inf: read-out: MRTInf—obs; for Vd: read-out: Vss—obs
Method: (§1) The rat pharmacokinetics studies of exemplary compounds 03-3, 03-5, and 03-115 were conducted with male SD rats. These rats were typically about 6-8 weeks old, weighing 200 g to 300 g. Animals were fasted overnight and free access to food 4 hours after dosing. A required volume of vehicle was added to reach the target concentration of the test article and vehicle component to prepare for the dosing. The dosing vehicle was PEG400 or 30% PEG400 in saline for IV, or 0.5% methylcellulose in water for PO. For IV dosing, the animals were administered intravenously via tail vein. For PO dosing, the animals were administered via oral gavage. After dosing, blood sample was collected (˜0.2 mL per time point) through jugular vein or heart puncture. Blood of each sample was transferred into plastic micro centrifuge tubes containing EDTA-K2. Collection tubes with blood samples and anticoagulant were inverted several times for proper mixing of the tube contents and then placed on wet ice. The blood samples were centrifuged at 2000 g for 5 minutes at 4° C. to obtain plasma which was stored in a freezer at −75±15° C. prior to analysis. Samples were analyzed using LC-MS/MS. WinNonlin were used for pharmacokinetic calculations.

[4] = Mouse CNS exposure measurement (plasma, CSF, brain); type: in vivo, male C57BL/6J mice; details: male, C57BL/6J; for concentration at 100 min: PO 5 mg/kg; for concentration at 60 min: in vivo, sc, 1 mg/kg, SC 1 mg/kg
Method: as §1, with “These” for “The rat pharmacokinetics studies of exemplary compounds 03-3, 03-5, and 03-115 were conducted with male SD rats. These”
For CSF sampling, after anesthesia, the foramen magnum was exposed, and a syringe was used with a venoclysis needle to sample the CSF. The CSF samples were stored in polypropylene tubes, then stored in a freezer at −75±15° C. prior to analysis.
For brain sampling, the rats were fully exsanguinated by using a risen of carbon dioxide prior to brain collection. Brain samples were then collected at adopted time point, quick frozen and kept at −75±15° C. All brain samples were weighted and homogenated with PBS by brain weight (g) to PBS volume (mL) ratio 1:3 before analysis. The actual concentration is the detected value multiplied by the dilution factor.
These mice were typically about 6-8 weeks old, weighing 20 g to 30 g. Animals were free access to food before dosing. Sample amount was ˜0.03 mL per time point and sample site was dorsal metatarsal or heart puncture.

[5] = Dog pharmacokinetic studies; type: in vivo, male Beagle dogs; details: for AUC(0-inf) / Cmax / MRT / Tmax: male, Beagle
Method: as §1
Dog pharmacokinetics studies of exemplary compounds 03-3, 03-5, and 03-115 were conducted substantially similarly to the rat pharmacokinetic studies, instead using male Beagle dogs. Animals for PO studies were food fasted overnight prior to dosing and were fed approximately 2 hours after dosing. Animals for IV studies had free access to food and water. Blood samples were collected through venipuncture of peripheral veins except the dosing vein.

CC(C)(C)NC[C@H](O)c1cccc(C#N)n1 [Compound 03-5, (S)-6-(2-(tert-butylamino)-1-hydroxyethyl)picolinonitrile]
fraction unbound at 6 h, 1 μM [1]: 1
fraction unbound at 6 h, 1 μM ([2]; rat, brain homogenate): 0.95
AUClast/D ([3]; IV 1 mg/kg): 461
AUC—% Extrap—obs ([3]; IV 1 mg/kg): 0.457%
Cl_obs ([3]; IV 1 mg/kg): 37.3 mL/min/kg
AUClast/D ([3]; PO 5 mg/kg): 450
AUC—% Extrap—obs ([3]; PO 5 mg/kg): 4.10%
F ([3]; PO 5 mg/kg): 101%
AUC(0-inf) ([3]; plasma, IV 1 mg/kg): 463 ng·h/mL
AUC(0-t) ([3]; plasma, IV 1 mg/kg): 461 ng·h/mL
C0 ([3]; plasma, IV 1 mg/kg): 468 ng/mL
half-life ([3]; plasma, IV 1 mg/kg): 0.644 h
MRT inf ([3]; plasma, IV 1 mg/kg): 0.873 h
Vd ([3]; plasma, IV 1 mg/kg): 1.89 L/kg
AUC(0-inf) ([3]; plasma, PO 5 mg/kg): 2340 ng·h/mL
AUC(0-t) ([3]; plasma, PO 5 mg/kg): 2250 ng·h/mL
Cmax ([3]; plasma, PO 5 mg/kg): 717 ng/mL
Tmax ([3]; plasma, PO 5 mg/kg): 0.75 h
half-life ([3]; plasma, PO 5 mg/kg): 1.61 h
MRT inf ([3]; plasma, PO 5 mg/kg): 2.62 h
concentration at 100 min ([4]; CSF, read-out: Concentration, CSF): 621 ng/mL
concentration at 100 min ([4]; brain, read-out: Concentration, Brain): 989 ng/g
concentration at 100 min ([4]; plasma, read-out: Concentration, Plasma): 1340 ng/mL
F ([5]; PO 0.3 mg/kg): 72%
F ([5]; PO 1 mg/kg): 70%
AUC(0-inf) ([5]; plasma, PO 0.3 mg/kg): 55.4 ng·h/mL
Cmax ([5]; plasma, PO 0.3 mg/kg): 43.2 ng/mL
MRT ([5]; plasma, PO 0.3 mg/kg): 1.22 h
Tmax ([5]; plasma, PO 0.3 mg/kg): 0.42 h
AUC(0-inf) ([5]; plasma, PO 1 mg/kg): 273 ng·h/mL
Cmax ([5]; plasma, PO 1 mg/kg): 164 ng/mL
MRT ([5]; plasma, PO 1 mg/kg): 1.37 h
Tmax ([5]; plasma, PO 1 mg/kg): 0.33 h

CC(C)(C)NC[C@H](O)c1cccc(C(F)(F)F)n1 [Compound 03-3]
fraction unbound at 6 h, 1 μM [1]: 0.89
fraction unbound at 6 h, 1 μM ([2]; rat, brain homogenate): 0.48
AUClast/D ([3]; IV 1 mg/kg): 546
AUC—% Extrap—obs ([3]; IV 1 mg/kg): 1.14%
Cl_obs ([3]; IV 1 mg/kg): 30.2 mL/min/kg
AUClast/D ([3]; PO 5 mg/kg): 845
AUC—% Extrap—obs ([3]; PO 5 mg/kg): 0.0970%
F ([3]; PO 5 mg/kg): 153%
AUC(0-t) ([3]; in vivo, IV 1 mg/kg): 546 ng·h/mL
AUC(0-inf) ([3]; plasma, IV 1 mg/kg): 552 ng·h/mL
C0 ([3]; plasma, IV 1 mg/kg): 388 ng/mL
half-life ([3]; plasma, IV 1 mg/kg): 1.28 h
MRT inf ([3]; plasma, IV 1 mg/kg): 1.61 h
Vd ([3]; plasma, IV 1 mg/kg): 2.92 L/kg
AUC(0-inf) ([3]; plasma, PO 5 mg/kg): 4230 ng·h/mL
AUC(0-t) ([3]; plasma, PO 5 mg/kg): 4220 ng·h/mL
Cmax ([3]; plasma, PO 5 mg/kg): 818 ng/mL
Tmax ([3]; plasma, PO 5 mg/kg): 1.17 h
half-life ([3]; plasma, PO 5 mg/kg): 2.44 h
MRT inf ([3]; plasma, PO 5 mg/kg): 3.93 h
concentration at 100 min ([4]; CSF, po, 5 mg/kg, read-out: Concentration, CSF): 302 ng/mL
concentration at 100 min ([4]; brain, po, 5 mg/kg, read-out: Concentration, Brain): 988 ng/g
concentration at 100 min ([4]; plasma, po, 5 mg/kg, read-out: Concentration, Plasma): 557 ng/mL
F ([5]; PO 1 mg/kg): 111%
F ([5]; PO 2.5 mg/kg): 194%
AUC(0-inf) ([5]; plasma, PO 1 mg/kg): 584 ng·h/mL
Cmax ([5]; plasma, PO 1 mg/kg): 227 ng/mL
MRT ([5]; plasma, PO 1 mg/kg): 1.93 h
Tmax ([5]; plasma, PO 1 mg/kg): 0.5 h
AUC(0-inf) ([5]; plasma, PO 2.5 mg/kg): 1590 ng·h/mL
Cmax ([5]; plasma, PO 2.5 mg/kg): 413 ng/mL
MRT ([5]; plasma, PO 2.5 mg/kg): 3.19 h
Tmax ([5]; plasma, PO 2.5 mg/kg): 0.5 h

Cc1ncccc1[C@@H](O)CNC(C)(C)C [Compound 03-115]
fraction unbound at 6 h, 1 μM [1]: 1
fraction unbound at 6 h, 1 μM ([2]; 1 μM, rat brain tissue homogenate, dialysis 6 hours, read-out: BTB (rat), percent of unbound fraction): 1
Cl_obs ([3]; IV 1 mg/kg): 103 mL/min/kg
F ([3]; PO 5 mg/kg): 23%
AUC(0-inf) ([3]; in vivo, IV 1 mg/kg): 164 ng·h/mL
C0 ([3]; in vivo, IV 1 mg/kg): 512 ng/mL
half-life ([3]; in vivo, IV 1 mg/kg): 0.36 h
Vd ([3]; in vivo, IV 1 mg/kg): 2.4 L/kg
AUC(0-inf) ([3]; in vivo, PO 5 mg/kg): 192 ng·h/mL
Cmax ([3]; in vivo, PO 5 mg/kg): 174 ng/mL
Tmax ([3]; in vivo, PO 5 mg/kg): 0.25 h
half-life ([3]; in vivo, PO 5 mg/kg): 1.61 h
MRT inf ([3]; in vivo, PO 5 mg/kg): 1.06 h
concentration at 60 min ([4]; read-out: Concentration, Brain): 280 ng/g
concentration at 60 min ([4]; read-out: Concentration, CSF): 157 ng/mL
concentration at 60 min ([4]; read-out: Concentration, Plasma): 270 ng/mL
F ([5]; PO 0.5 mg/kg): 53%
F ([5]; PO 1.5 mg/kg): 71%
AUC(0-inf) ([5]; in vivo, PO 0.5 mg/kg): 132 ng·h/mL
Cmax ([5]; in vivo, PO 0.5 mg/kg): 72.3 ng/mL
MRT ([5]; in vivo, PO 0.5 mg/kg): 1.82 h
Tmax ([5]; in vivo, PO 0.5 mg/kg): 0.5 h
AUC(0-inf) ([5]; in vivo, PO 1.5 mg/kg): 537 ng·h/mL
Cmax ([5]; in vivo, PO 1.5 mg/kg): 387 ng/mL
MRT ([5]; in vivo, PO 1.5 mg/kg): 1.69 h
Tmax ([5]; in vivo, PO 1.5 mg/kg): 0.33 h

From patent publication US10947196B2, “Beta adrenergic agonist and methods of using the same” (CURASEN THERAPEUTICS, INC., priority 2019, dated 2021)
